# Results taken from ChEMBL document CHEMBL1201862, “PubChem BioAssay data set” (2004).
# Active and inactive are the calls of the source.
# How the values were obtained:
# [1] = target: T1, Sentrin-specific protease 8 (Homo sapiens, UniProt Q96LD8); type: functional
# T1 sequence (Q96LD8 whole entry): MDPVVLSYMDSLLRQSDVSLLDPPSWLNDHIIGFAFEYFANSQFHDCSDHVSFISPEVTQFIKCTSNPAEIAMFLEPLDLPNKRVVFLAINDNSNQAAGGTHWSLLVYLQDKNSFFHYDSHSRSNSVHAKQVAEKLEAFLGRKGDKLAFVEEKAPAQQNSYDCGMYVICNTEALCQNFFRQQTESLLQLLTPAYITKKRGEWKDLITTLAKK
# [2] = target: T1, Sentrin-specific protease 8; type: functional; remark: listed apart in the source
# [3] = HIV-1 AD8 envelope cell-cell fusion blockers – cherry-pick, dose response (AID 652062); type: functional, cell-based;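 further: luciferase signal from cell-cell fusion driven by HIV-1 clade B AD8 Env; potency is for inhibitors of fusion seen as a drop in luminescence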
# [4] = blockers of HIV-1 envelope-mediated cell-cell fusion – cherry-pick, dose response (AID 652057); type: functional, cell-based
# [5] = off-target signal loss in HeLa-CEM21 co-culture – HeLa F-luc CTL cells, cherry-picked, counter-screen for HIV-1 Env fusion inhibitor project, dose response (AID 652040); type: functional, cell-based;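 further: potency for signal decrease marking cytotoxic or nonspecific inhibition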
# [6] = general cell-killing toxicity readout – plate reader, dry powder samples, cytotoxicity control for PAX8 inhibitor project, dose response (AID 743021); type: functional, cell-based
# [7] = target: T2, Heat shock factor protein 1 (Mus musculus, UniProt P38532); test: decrease of HSF1-responsive luciferase luminescence – cell-based, NIH3T3, dose retest, confirmation (AID 2382); type: functional;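 further: NIH3T3 fibroblasts with HSF1-driven luciferase reporter stressed by proteasome inhibitor MG132; luminescence from HSF1-driven luciferase expression after 8 hours of MG132 stress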
# T2 sequence (P38532 whole entry): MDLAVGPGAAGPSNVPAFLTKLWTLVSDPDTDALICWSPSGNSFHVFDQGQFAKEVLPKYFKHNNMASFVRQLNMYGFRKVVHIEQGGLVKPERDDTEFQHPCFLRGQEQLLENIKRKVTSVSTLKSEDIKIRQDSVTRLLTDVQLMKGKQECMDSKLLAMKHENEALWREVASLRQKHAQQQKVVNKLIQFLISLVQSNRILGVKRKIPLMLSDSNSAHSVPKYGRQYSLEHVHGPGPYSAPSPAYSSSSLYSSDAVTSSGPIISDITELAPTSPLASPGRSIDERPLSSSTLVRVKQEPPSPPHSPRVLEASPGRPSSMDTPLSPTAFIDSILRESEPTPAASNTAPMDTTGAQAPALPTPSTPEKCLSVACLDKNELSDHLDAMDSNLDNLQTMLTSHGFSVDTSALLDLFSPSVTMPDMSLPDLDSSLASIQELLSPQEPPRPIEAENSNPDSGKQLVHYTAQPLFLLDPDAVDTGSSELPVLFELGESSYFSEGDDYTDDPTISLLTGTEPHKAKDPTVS
# [8] = blockers of HIV-1 ZM109 envelope-driven cell-cell fusion – HeLa effector, CEM target cells, luciferase, cherry-pick, dose response (AID 652058); type: functional, cell-based;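 further: luciferase signal from HIV-1 Env mediated cell-cell fusion of effector and target cells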
# [9] = target: Paired box protein Pax-8 (Homo sapiens, UniProt Q06710); test: PAX8 transcriptional activity inhibition in RMG-I – RMG-I cells, luciferase, cherry-pick, dose response (AID 687027); type: functional, cell-based;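 further: luciferase reporter driven by Pax8 target thyroperoxidase promoter measured by SteadyGlo luminescence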
# [10] = Luminescence-based counterscreen assay for KLF5 inhibitors: dose response cell-based high throughput screening assay to identify cytotoxic compounds using the IEC-6 intestinal epithelial cell line. [Related pubchem assays: 1700 (Primary screen.), 1834 (Confirmation screen.), 1858 (Summary AID.), 1905 (Counterscreen.)]; type: functional
# [11] = target: T3, Estrogen receptor (Homo sapiens, UniProt P03372);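 further: potency for inhibiting coactivator peptide recruitment to the receptor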
# T3 sequence (P03372 whole entry): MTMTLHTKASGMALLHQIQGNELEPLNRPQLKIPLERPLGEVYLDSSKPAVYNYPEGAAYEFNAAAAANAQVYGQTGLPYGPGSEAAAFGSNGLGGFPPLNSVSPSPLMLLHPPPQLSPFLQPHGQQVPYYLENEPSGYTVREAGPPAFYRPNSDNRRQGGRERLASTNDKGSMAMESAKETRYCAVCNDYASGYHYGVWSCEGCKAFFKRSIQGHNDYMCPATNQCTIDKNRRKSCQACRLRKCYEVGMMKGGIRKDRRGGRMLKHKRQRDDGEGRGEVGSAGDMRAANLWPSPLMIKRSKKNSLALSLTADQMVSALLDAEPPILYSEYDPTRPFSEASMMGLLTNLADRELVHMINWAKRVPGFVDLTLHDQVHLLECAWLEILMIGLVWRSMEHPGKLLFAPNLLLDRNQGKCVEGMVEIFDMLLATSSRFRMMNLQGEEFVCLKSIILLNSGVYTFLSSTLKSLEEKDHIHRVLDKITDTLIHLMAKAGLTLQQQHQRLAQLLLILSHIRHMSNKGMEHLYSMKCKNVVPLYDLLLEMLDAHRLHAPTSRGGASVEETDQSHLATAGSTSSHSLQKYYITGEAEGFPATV
# [12] = target: T4, Protein RecA (Mycobacterium tuberculosis, UniProt P9WHJ3); test: Fluorescence Cell-Free Homogeneous Dose Retest to Identify Inhibitors of RecA-Intein Splicing Activity. [Related pubchem assays (depositor defined):AID2097, AID2223, AID489010, AID492950]; type: functional
# T4 sequence (P9WHJ3 whole entry): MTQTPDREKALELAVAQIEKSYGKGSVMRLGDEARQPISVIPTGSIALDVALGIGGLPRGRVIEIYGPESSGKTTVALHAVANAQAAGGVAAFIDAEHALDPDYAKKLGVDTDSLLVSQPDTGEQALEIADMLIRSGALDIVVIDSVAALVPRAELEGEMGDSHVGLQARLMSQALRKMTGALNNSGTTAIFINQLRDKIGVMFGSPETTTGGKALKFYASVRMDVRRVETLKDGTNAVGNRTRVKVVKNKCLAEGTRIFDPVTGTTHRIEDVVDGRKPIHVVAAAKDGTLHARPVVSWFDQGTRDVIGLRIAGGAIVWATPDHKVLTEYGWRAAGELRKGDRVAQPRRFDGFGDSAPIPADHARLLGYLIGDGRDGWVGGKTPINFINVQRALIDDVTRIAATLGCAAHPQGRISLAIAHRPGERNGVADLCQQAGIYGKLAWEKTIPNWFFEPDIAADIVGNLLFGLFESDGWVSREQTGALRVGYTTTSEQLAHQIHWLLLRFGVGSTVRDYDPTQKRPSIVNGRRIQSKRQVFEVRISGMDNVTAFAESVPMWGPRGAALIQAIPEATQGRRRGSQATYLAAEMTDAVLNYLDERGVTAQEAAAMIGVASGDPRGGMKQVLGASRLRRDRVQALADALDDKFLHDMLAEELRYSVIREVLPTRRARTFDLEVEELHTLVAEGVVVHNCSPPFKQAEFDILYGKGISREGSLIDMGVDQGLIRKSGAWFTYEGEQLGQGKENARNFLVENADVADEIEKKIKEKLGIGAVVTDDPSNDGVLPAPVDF
# [13] = target: T5, Replicative DNA helicase DnaB (Mycobacterium tuberculosis, UniProt P9WMR3); test: DnaB intein splicing inhibitors, dose response, biochemical, cell-free fluorescence (AID 449749); type: functional
# T5 sequence (P9WMR3 whole entry): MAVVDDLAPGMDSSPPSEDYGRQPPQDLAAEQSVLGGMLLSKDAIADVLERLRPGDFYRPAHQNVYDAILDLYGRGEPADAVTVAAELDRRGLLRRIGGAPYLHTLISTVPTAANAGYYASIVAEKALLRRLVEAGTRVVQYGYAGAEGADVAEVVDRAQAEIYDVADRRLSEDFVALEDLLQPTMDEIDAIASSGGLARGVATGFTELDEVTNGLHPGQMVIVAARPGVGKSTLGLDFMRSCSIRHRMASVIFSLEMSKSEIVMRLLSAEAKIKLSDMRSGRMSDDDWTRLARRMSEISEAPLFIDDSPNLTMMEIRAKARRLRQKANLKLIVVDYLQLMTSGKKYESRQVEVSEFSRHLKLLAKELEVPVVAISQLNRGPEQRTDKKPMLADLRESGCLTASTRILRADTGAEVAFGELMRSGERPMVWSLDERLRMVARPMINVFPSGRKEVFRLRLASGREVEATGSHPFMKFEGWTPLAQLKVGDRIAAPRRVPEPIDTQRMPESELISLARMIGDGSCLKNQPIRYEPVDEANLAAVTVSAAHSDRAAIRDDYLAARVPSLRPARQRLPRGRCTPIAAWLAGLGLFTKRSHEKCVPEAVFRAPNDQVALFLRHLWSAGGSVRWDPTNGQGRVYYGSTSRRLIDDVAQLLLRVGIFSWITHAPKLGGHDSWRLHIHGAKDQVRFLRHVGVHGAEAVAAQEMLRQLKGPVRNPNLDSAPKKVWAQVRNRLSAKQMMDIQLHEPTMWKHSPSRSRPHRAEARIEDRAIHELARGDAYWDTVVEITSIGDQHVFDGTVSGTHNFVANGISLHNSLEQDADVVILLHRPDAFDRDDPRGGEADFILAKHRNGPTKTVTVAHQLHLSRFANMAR
# [14] = Fluorescence-based cell-based high throughput dose response assay for inhibitors of the interaction of nucleotide-binding oligomerization domain containing 2 (NOD2) and the receptor-interacting serine-threonine kinase 2 (RIPK2).; type: functional; settings: Homo sapiens
# [15] = target: T6, Endoribonuclease toxin MazF (Escherichia coli K-12, UniProt P0AE70); test: substrate-only fluorescence increase artefacts – biochemical, single-stranded RNase substrate, counter-screen for MazEF activator project, dose response (AID 588502); type: functional
# T6 sequence (P0AE70 whole entry): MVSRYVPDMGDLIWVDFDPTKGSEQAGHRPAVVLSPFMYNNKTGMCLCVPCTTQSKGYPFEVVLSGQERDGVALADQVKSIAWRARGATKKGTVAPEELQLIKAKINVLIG
# [16] = target: T6, Endoribonuclease toxin MazF; test: activation of MazEF endoribonuclease cleavage – biochemical, fluorescence, single-stranded RNA substrate, uHTS hits, dose response (AID 588481); type: functional
# [17] = target: ADP-ribosylation factor GTPase-activating protein 1 (Rattus norvegicus, UniProt Q62848); test: Fluorescence polarization-based biochemical high throughput dose response screening assay to identify inhibitors of ADP-ribosylation factor GTPase activating protein 1 (ARFGAP1).; type: functional
# [18] = viability of HCT116 lacking mutant beta-catenin – cell-based, human colon tumor, dose response (AID 1045); type: functional;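 further: HCT116 colon tumor cells with beta catenin knocked out; cells exposed to compound for 60 hours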
# [19] = NIH3T3 cell viability loss – ATP luminescence, mouse fibroblasts, counter-screen, dose response (AID 2010); type: functional, cell-based;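 further: cells exposed to compound for about 90 hours before reading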
# [20] = viability of PTEN-deleted HCT116 cells – cell-based, HCT116 PTEN knockout, dose response (AID 1047); type: functional;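 further: HCT116 colon tumor cells with PTEN knocked out; cells exposed to compound for 60 hours before readout; potency for loss of cell viability measured by luminescence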
# [21] = Trypanosoma cruzi growth suppression in host cells – NIH3T3 host cells, beta-gal luminescence, confirmation (AID 2044); type: functional, cell-based;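 further: intracellular parasites grown in NIH/3T3 mouse fibroblasts as host cells; luminescent beta-galactosidase reporter signal from transgenic T. cruzi replicating inside host cells; inhibitors lower the luminescence signal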
# [22] = target: T7, Low molecular weight phosphotyrosine protein phosphatase (Homo sapiens, UniProt P24666); type: functional; settings: read-out: IC50_Mean;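 further: Dose-response confirmation assay measuring inhibition of LMPTP enzyme activity by fluorescence intensity read-out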
# T7 sequence (P24666 whole entry): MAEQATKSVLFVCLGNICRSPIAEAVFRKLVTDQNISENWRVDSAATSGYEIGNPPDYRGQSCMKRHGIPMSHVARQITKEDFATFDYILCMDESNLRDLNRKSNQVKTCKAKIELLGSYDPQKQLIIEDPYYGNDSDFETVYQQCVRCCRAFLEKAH
# ADP-ribosylation factor GTPase-activating protein 1, sequence (Q62848 whole entry): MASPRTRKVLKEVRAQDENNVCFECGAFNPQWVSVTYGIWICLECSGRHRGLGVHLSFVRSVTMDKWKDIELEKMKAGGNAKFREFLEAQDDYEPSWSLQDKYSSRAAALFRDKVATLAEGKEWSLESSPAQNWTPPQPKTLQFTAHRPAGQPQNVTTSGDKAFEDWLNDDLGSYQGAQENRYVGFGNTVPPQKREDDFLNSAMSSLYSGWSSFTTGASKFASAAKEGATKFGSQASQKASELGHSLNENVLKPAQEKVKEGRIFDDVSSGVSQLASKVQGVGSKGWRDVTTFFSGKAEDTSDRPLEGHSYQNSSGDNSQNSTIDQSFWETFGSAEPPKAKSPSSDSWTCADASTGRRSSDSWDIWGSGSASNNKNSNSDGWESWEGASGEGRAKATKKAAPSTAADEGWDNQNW
# Paired box protein Pax-8, sequence (Q06710 whole entry): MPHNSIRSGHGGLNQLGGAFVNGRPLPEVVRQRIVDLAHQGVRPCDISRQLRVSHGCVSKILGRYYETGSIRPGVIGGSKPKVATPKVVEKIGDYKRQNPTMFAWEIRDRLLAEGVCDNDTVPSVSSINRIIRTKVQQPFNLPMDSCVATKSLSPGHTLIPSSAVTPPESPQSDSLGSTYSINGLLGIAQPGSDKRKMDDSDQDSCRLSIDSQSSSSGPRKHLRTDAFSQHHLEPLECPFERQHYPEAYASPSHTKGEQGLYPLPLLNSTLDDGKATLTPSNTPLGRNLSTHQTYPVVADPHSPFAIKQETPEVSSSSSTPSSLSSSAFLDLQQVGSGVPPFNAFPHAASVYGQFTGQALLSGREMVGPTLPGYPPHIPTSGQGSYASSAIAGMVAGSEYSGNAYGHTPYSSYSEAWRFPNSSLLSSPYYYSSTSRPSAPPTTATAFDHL
structure (smiles),measurement,setting,value
O=S1(=O)NC2c3ccccc3CC2O1 (stereo not drawn),IC50,[1],19.5 µM (active)
same,IC50,[2],9.78 µM (active)
COc1cc(/C=N/O)ccc1OCc1ccc(C(=O)O)cc1,AC50,[3],1.49 µM (active)
same,AC50,[4],0.351 µM (active)
same,AC50,[5],0.82 µM (active)
same,AC50,[6],25.6 µM (active)
same,EC50,[7],1.78 µM (active)
same,AC50,[8],6.61 µM (active)
same,AC50,[9],5.79 µM (active)
same,IC50,[10],> 39.8 µM (not active)
O=C(COC(=O)CCOc1ccccc1)NCc1ccco1,IC50,[11],16.6 µM (active)
O=C(Nc1ccc(F)cc1)c1nn(-c2ccccc2)c(=O)cc1Cl,EC50,[12],8.71 µM (active)
same,AC50,[13],11.9 µM (active)
same,IC50,[14],4.16 µM (active)
O=C(C[C@H]1C[C@@H]2c3cc(NC(=O)C4CCOCC4)ccc3O[C@@H]2[C@@H](CO)O1)NCc1ccc(Oc2ccccc2)cc1,AC50,[6],65.1 µM (active)
COCCCn1c(=O)/c(=C\c2ccccc2OC(F)F)s/c1=C(/C#N)C(=O)NCCOC,EC50,[15],> 99 µM (inactive)
same,EC50,[16],> 99 µM (inactive)
CCn1cc(C=C2C(=O)c3ccccc3C2=O)c2ccccc21,EC50,[15],35.9 µM (inactive)
same,EC50,[16],> 99 µM (inactive)
N#Cc1c(NC(=O)C2CC(c3c(F)cccc3Cl)=NO2)sc2c1CCC2 (stereo not drawn),IC50,[17],43.6 µM (inactive)
Cc1ccc(/C=N/c2ccc(N(C)C)cc2)o1,IC50,[1],> 100 µM (inactive)
same,EC50,[18],58 µM (active)
same,EC50,[19],> 60 µM (not active)
same,EC50,[20],42.3 µM (active)
same,IC50,[2],18.1 µM (active)
same,EC50,[21],1.12 µM (active)
CCOC(=O)CSc1nc2ccc(C)cc2cc1C#N,EC50,[15],> 99 µM (inactive)
same,EC50,[16],9.32 µM (active)
Cc1cccc(C(=O)OCc2cc3ccccc3[nH]c2=O)c1,EC50,[15],> 99 µM (inactive)
same,EC50,[16],> 99 µM (inactive)
O=C(CN1CCCN(Cc2ccc(F)cc2Cl)C1=O)NC1CCCCCCC1,AC50,[3],44.3 µM (active)
same,AC50,[4],30.1 µM (active)
same,AC50,[5],> 70 µM (inactive)
Cc1onc(-c2ccccc2Cl)c1C(=O)NCc1cccnc1,IC50,[11],> 50 µM (not active)
CN(C)/C=C/C(=O)c1ccc(OCCN(C)c2ccccn2)cc1,IC50,[22],29.9 µM (inactive)
O=C1CSC(=S)N1N=Cc1c(O)ccc2ccccc12,EC50,[15],> 99 µM (inactive)
same,EC50,[16],> 99 µM (inactive)
Cc1ccc2nc(SCC(=O)N3CCCC3)nc(=O)n2c1,IC50,[17],45.2 µM (inactive)
